Patent US20230203060A1 (GENFLEET THERAPEUTICS (SHANGHAI) INC., priority 2020, published 2023)
Where a name gives a salt, the structure may show the parent alone. Read-outs that look alike come from different tables or passages of the source.

Assays:
[1] = test system: phosphorylated ERK downstream of KRAS G12C in MIA PaCa2 cells; assay: Cell p-ERK detection experiment (HTRF) in MIA PaCa2; format: cell-based, human; conditions: read-out: p-ERK IC50
In short: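 KRAS G12C-mutant MIA PaCa2 cells (2.5E4 per well, overnight) exposed 2 h to a 3.16-fold compound dilution series at 0.1% DMSO. Lysates probed 4 h with HTRF antibodies to ERK phospho-T202/Y204; inhibition versus DMSO control and blank, IC50 by four-parameter fit.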

[2] = test system: KRAS G12C mutant MIA PaCa-2 cells; assay: Cell proliferation inhibition experiment, 3D spheroid, CellTiter-Glo, MIA PaCa-2; format: cell-based, human; conditions: Homo sapiens, MIA PaCa-2, 120 h, read-out: MIA-PaCa2 IC50
In short: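 200 MIA PaCa-2 cells/well grown overnight as 3D spheroids, then exposed to 3.16-fold compound dilutions (0.1% DMSO final) for 5 days. Viability read by CellTiter-Glo luminescence; inhibition calculated against DMSO and medium-only controls, and IC50 fitted by four-parameter model.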

[3] = Homo sapiens, MIA PaCa-2, 2 h, MIA PaCa2 cells, 2 hours with compound, Advance ERK phospho-T202/Y204 HTRF kit
[4] = 3D cell model in 384-well spheroid plate, 5 days, CellTiter-Glo

C=CC(=O)N1CCN2C(=O)c3c(N(C)c4c(C)ccnc4C(C)C)nc(-c4c(O)cccc4F)c(Cl)c3OC[C@H]2C1 [Z6, (6aR)-8-acryloyl-4-chloro-3-(2-fluoro-6-hydroxyphenyl)-1-((2-isopropyl-4-methylpyridin-3-yl)(methyl)amino)-6,6a,7,8,9,10-hexahydro-12H-pyrazino[2,1-c]pyrido[3,4-f][1,4]oxazepin-12-one]
IC50 [1, 3]: 128 nM | IC50 [2, 4]: 17 nM

C=CC(=O)N1CCN2C(=O)c3c(N4CCOC5(CC5)C4)nc(-c4c(O)cccc4F)c(Cl)c3OC[C@H]2C1 [Z63, (6aR)-8-acryloyl-4-chloro-1-(4-oxa-7-azaspiro[2.5]octan-7-yl)-3-(2-fluoro-6-hydroxyphenyl)-6,6a,7,8,9,10-hexahydro-12H-pyrazino[2,1-c]pyrido[3,4-f][1,4]oxazepin-12-one]
IC50 [1, 3]: 154 nM | IC50 [2, 4]: 23 nM

C=CC(=O)N1CCN2C(=O)c3c(N4CCN(C)C(C)(C)C4)nc(-c4ccccc4F)c(Cl)c3OC[C@H]2C1 [Z463, (R)-8-acryloyl-4-chloro-3-(2-fluorophenyl)-1-(3,3,4-trimethylpiperazin-1-yl)-6,6a,7,8,9,10-hexahydro-12H-pyrazino[2,1-c]pyrido[3,4-f][1,4]oxazepin-12-one, formate]
IC50 ([1]; Homo sapiens, MIA PaCa-2, 2 h): 271 nM | IC50 [2]: 59 nM

C=CC(=O)N1CCN2C(=O)c3c(N4CCN(CC)C[C@@H]4C)nc(-c4c(O)cccc4F)c(Cl)c3OC[C@H]2C1 [Z236]
IC50 ([1]; Homo sapiens, MIA PaCa-2, 2 h): 25 nM | IC50 [2]: 7.9 nM

C=CC(=O)N1CCN2C(=O)c3c(N4C[C@@H](O)CC4(C)C)nc(-c4c(O)cccc4F)c(Cl)c3OC[C@H]2C1 (single isomer, unassigned) [Z81]
IC50 [1, 3]: 13 nM

C=CC(=O)N1CCN2C(=O)c3c(NC(C)C)nc(-c4c(O)cccc4F)c(Cl)c3OC[C@H]2C1 [Z75, (6aR)-8-acryloyl-4-chloro-1-(isopropylamino)-3-(2-fluoro-6-hydroxyphenyl)-6,6a,7,8,9,10-hexahydro-12H-pyrazino[2,1-c]pyrido[3,4-f][1,4]oxazepin-12-one]
IC50 [2, 4]: 67 nM

C=CC(=O)N1CCN2C(=O)c3c(N4CC(=O)N(C)CC4C)nc(-c4c(O)cccc4F)c(Cl)c3OC[C@H]2C1 (single isomer, unassigned) [Z221-2]
IC50 ([1]; MIA PaCa2 cells, 2 hours with compound, Advance ERK phospho-T202/Y204 HTRF kit): 173 nM

C=CC(=O)N1CCN2C(=O)c3c(OC4CCN(C)CC4)nc(-c4c(O)cccc4F)c(Cl)c3OC[C@H]2C1 [Z61, (6aR)-8-acryloyl-4-chloro-3-(2-fluoro-6-hydroxyphenyl)-1-((1-methylpiperidin-4-yl)oxy)-6,6a,7,8,9,10-hexahydro-12H-pyrazino[2,1-c]pyrido[3,4-f][1,4]oxazepin-12-one]
IC50 [2, 4]: 26 nM

C=CC(=O)N1CCN2C(=O)c3c(N4CCOC5CC54)nc(-c4c(O)cccc4F)c(Cl)c3OC[C@H]2C1 (stereo partly drawn) [Z76, (6aR)-8-acryloyl-4-chloro-1-(2-oxa-5-azabicyclo[4.1.0]heptan-5-yl)-3-(2-fluoro-6-hydroxyphenyl)-6,6a,7,8,9,10-hexahydro-12H-pyrazino[2,1-c]pyrido[3,4-f][1,4]oxazepin-12-one]
IC50 [2, 4]: 34 nM

C=CC(=O)N1CCN2C(=O)c3c(N4CCNC(C)C4C)nc(-c4c(O)cccc4F)c(Cl)c3OC[C@H]2C1 (stereo partly drawn) [Z308, (6aR)-8-acryloyl-4-chloro-1-(2,3-dimethylpiperazin-1-yl)-3-(2-fluoro-6-hydroxyphenyl)-6,6a,7,8,9, 10-hexahydro-12H-pyrazino[2,1-c]pyrido[3,4-f][1,4]oxazepin-12-one]
IC50 [2, 4]: 34 nM

C=CC(=O)N1CCN2C(=O)c3c(N4C[C@H](O)C[C@@H]4C)nc(-c4c(O)cccc4F)c(Cl)c3OC[C@H]2C1 [Z259, (6aR)-8-acryloyl-4-chloro-3-(2-fluoro-6-hydroxyphenyl)-1-((2S,4R)-4-hydroxy-2-methylpyrrolidin-1-yl)-6,6a,7,8,9,10-hexahydro-12H-pyrazino[2,1-c]pyrido[3,4-f][1,4]oxazepin-12-one]
IC50 [1, 3]: 195 nM

C=CC(=O)N1CCN2C(=O)c3c(N4C[C@H](O)CC4(C)C)nc(-c4c(O)cccc4F)c(Cl)c3OC[C@H]2C1 (single isomer, unassigned) [Z82]
IC50 [1, 3]: 136 nM
